Experimental data published in US20210355107A1, “MULTI-SUBSTITUTED PYRIDONE DERIVATIVES AND MEDICAL USE THEREOF” (Beijing Yuezhikangtai Biomedicines Co., Ltd., priority 2018, published 2021).

Columns and labels:
tyrosine kinase Tyro3 = target: T1, tyrosine kinase Tyro3 (Homo sapiens, UniProt Q06418); assay: HTRF assay, inhibitory activity against tyrosine kinase Tyro3; type: biochemical; conditions: ATP at Km (50 μM), two duplicate wells
T1 construct: purchased Carna 08-109
T1 sequence (Q06418 453-890 limits assumed): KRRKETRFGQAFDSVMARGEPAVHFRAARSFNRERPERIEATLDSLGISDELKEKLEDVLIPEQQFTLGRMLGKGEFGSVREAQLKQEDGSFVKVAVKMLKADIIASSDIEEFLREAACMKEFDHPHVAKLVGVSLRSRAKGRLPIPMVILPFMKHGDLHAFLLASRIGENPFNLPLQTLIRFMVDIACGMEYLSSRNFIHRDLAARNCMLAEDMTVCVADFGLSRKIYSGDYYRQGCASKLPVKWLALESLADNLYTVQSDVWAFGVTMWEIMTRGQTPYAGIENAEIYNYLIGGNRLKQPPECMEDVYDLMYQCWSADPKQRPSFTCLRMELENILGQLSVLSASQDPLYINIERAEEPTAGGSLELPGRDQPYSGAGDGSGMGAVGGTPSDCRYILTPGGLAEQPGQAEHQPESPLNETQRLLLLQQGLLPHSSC
Protocol: (§1) Test Example 2: Evaluation of Inhibitory Activity (IC50) of Compounds disclosed herein against Tyrosine Kinases Mer and Tyro3
(§2) In this test, HTRF method was used to test the inhibitory activity of compounds when ATP concentrations correspond to the Km of the kinases. The control substance was RXDX-106. The concentration of test compound was 3-fold diluted from an initial concentration of 10 μM, and two duplicate wells were set.
(§3) Kinase Mer (Carna, Cat. No. 08-108, Lot. No. 14CBS-0421H); Tyro3 (Carna, Cat. No. 08-109, Lot. No. 08CBS-1186H); HTRF kinase-TK kit (Cisbio, Cat. No. 62TK0PEC), the kit comprising: biotin-TK substrate lyophilized powder (Cisbio, Cat. No. 61TK0BLC, Lot. No. 07A), streptavidin-XL665 (Cisbio, Cat. No. 610SAXLG, Lot. No. 126A), TK antibody-cryptate (Cisbio, Cat. No. 610SAXLG, Lot. No. 04A), and detection buffer (including EDTA) (Cisbio, Cat. No. 62TK0PEC, Lot. No. 12A); ATP (Sigma, Cat. No. A7699-5G, CAS No. 34369-07-8, Lot. No. SLBQ6014V); DMSO (Sigma, Cat. No. D5879-1L, Lot. No. SHBH9944); HEPES (Sigma, Cat. No. V900477-500G, CAS No. 7365-45-9, Lot. No. WXBC4716V); MgCl2 (Sigma, Cat. No. 208337-1KG, Lot. No. MKBX9508V); EGTA (Sigma, Cat. No. E3889-100g, CAS 67-42-5, […], Lot. No. SLBG8546V); NP-40 (Beijing Dingguo, Cat. No. DH218, Lot. No. 36R00160); DTT (Sigma, Cat. No. D0632-25g, CAS No. 3483-12-3, Lot. No. SLBF3964V); compound plate (Labcyte, Cat. No. LP0200, Lot. No. 0006386836); assay plate (Greiner, Cat. No. 784075, Lot. No. E16123HM); control substance RXDX-106 (prepared according to the method disclosed in patent WO2013074633).
(§4) 1) Preparation of a buffer: 50 mM HEPES, 10 mM MgCl2, 1 mM EGTA, 0.01% NP-40, 2 mM DTT.
(§5) 2) Preparation of control substance and test samples: RXDX-106 and the compounds disclosed herein were each dissolved in DMSO to 10 mM and then diluted to 1 mM or an appropriate concentration with DMSO, and then serial double dilution was performed using BRAVO (Agilent). 100 nL of each was transferred from a compound plate (Labcyte-LP0200) to an assay plate (Greiner-784075) using ECHO 555 (Labcyte). The final concentration of DMSO was 1%.
(§6) 3) Mer and Tyro3 were each diluted to 0.5 nM and 1.2 nM with the detection buffer (Cisbio, Cat. No. 62TK0PEC, Lot. No. 12A). 5 μL of each was added to a 384-well plate and incubated with the compounds disclosed herein for 30 min at 22-25° C. Final concentrations of Mer and Tyro3 were 0.25 nM and 0.6 nM, respectively.
(§7) 4) Biotin-TK substrate and ATP were each diluted to a concentration twice the final concentration with 1× kinase buffer made up of HEPES, NaN3, BSA and orthovanadate. 5 μL of the mixture of substrate and ATP was added to the 384-well plate to initiate the reaction, which lasts for 1 h at 22-25° C.
(§8) 5) Streptavidin-XL665 and TK antibody-cryptate were diluted to 250 nM and 0.5 nM, respectively, with the detection buffer. […] of each of the two solutions was added to the 384-well plate to initiate the reaction, which lasts for 1 h at 22-25° C. The final concentrations of streptavidin-XL665 and TK antibody-cryptate were 125 nM and 0.25 nM, respectively.
(§9) 6) The fluorescence intensities at 665 nm and 615 nm were read with an Envision Reader (PerkinElmer) .
(§10) 7) IC50 values of the compounds were fitted with XL-fit software.

tyrosine kinase Mer = target: T2, tyrosine kinase Mer (Homo sapiens, UniProt Q12866); assay: HTRF assay, inhibitory activity against tyrosine kinase Mer; type: biochemical; conditions: ATP at Km (30 μM), two duplicate wells
T2 construct: purchased Carna 08-108
T2 sequence (Q12866 528-999 limits assumed): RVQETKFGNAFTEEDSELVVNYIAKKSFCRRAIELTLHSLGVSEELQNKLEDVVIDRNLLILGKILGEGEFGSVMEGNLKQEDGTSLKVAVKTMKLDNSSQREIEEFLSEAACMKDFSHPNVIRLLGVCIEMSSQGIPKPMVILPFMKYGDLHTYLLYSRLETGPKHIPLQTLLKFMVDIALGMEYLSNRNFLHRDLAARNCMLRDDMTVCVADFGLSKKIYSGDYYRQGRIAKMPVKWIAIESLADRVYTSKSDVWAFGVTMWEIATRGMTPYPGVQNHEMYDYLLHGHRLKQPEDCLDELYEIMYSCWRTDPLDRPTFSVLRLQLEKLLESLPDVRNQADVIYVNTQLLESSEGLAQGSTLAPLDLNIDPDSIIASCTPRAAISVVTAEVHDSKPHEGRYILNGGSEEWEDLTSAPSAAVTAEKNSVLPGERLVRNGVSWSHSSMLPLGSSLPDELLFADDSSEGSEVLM
Protocol: as §1, §2, §3, §4, §5, §6, §7, §8, §9, §10

Row | Structure (SMILES) | IC50 (tyrosine kinase Tyro3) [nM] | IC50 (tyrosine kinase Mer) [nM]
1 | CC(C)n1cc(C(=O)Nc2ccc(-c3cc(-c4cnn(C5CCNCC5)c4)cnc3N)c(F)c2)c(=O)c(-c2ccc(F)cc2)c1C#N [Example 2, N-(4-(2-amino-5-(1-(piperidin-4-yl)-1H-pyrazol-4-yl)pyridin-3-yl)-3-fluorophenyl)-6-cyano-5-(4-fluorophenyl)-1-isopropyl-4-oxo-1,4-dihydropyridine-3-carboxamide] | 1.18 | 0.62
2 | CC(C)n1cc(C(=O)Nc2cc(F)c(-c3cc(-c4cnn(C)c4)cnc3N)cc2F)c(=O)c(-c2ccc(F)cc2)c1C#N [Example 6, N-(4-(2-amino-5-(1-methyl-1H-pyrazol-4-yl)pyridin-3-yl)-2,5-difluorophenyl)-6-cyano-5-(4-fluorophenyl)-1-isopropyl-4-oxo-1,4-dihydropyridine-3-carboxamide] | 1.8 | 1.17
3 | CC(C)n1cc(C(=O)Nc2ccc(-c3cc(-c4cnn(C)c4)cnc3N)c(F)c2)c(=O)c(-c2ccc(F)cc2)c1C#N [Example 4, N-(4-(2-amino-5-(1-methyl-1H-pyrazol-4-yl)pyridin-3-yl)-3-fluorophenyl)-6-cyano-5-(4-fluorophenyl)-1-isopropyl-4-oxo-1,4-dihydropyridine-3-carboxamide] | 2.67 | 0.78
4 | CCn1cc(-c2cnc(N)c(-c3ccc(NC(=O)c4cn(C5CC5)c(C#N)c(-c5ccc(F)cc5)c4=O)cc3F)c2)cn1 [Example 10, N-(4-(2-amino-5-(1-ethyl-1H-pyrazol-4-yl)pyridin-3-yl)-3-fluorophenyl)-6-cyano-5-(4-fluorophenyl)-1-cyclopropyl-4-oxo-1,4-dihydropyridine-3-carboxamide] | 30.2 | 2.17

The remaining molecules from weak to strong by IC50 (tyrosine kinase Tyro3), led by results:

Row | IC50 (tyrosine kinase Tyro3) [nM] | IC50 (tyrosine kinase Mer) [nM] | Structure (SMILES)
5 | 15.5 | 11.4 | COc1cc2nccc(Oc3ccc(NC(=O)c4cn(C(C)C)c(C#N)c(-c5ccc(F)cc5)c4=O)cc3F)c2cc1OC [Example 24, 6-cyano-N-(4-((6,7-dimethoxyquinolin-4-yl)oxy)-3-fluoro-phenyl)-5-(4-fluorophenyl)-1-isopropyl-4-oxo-1,4-dihydropyridine-3-carboxamide]
6 | 2.27 | 1.11 | CCn1cc(-c2cnc(N)c(-c3ccc(NC(=O)c4cn(C(C)C)c(C#N)c(-c5ccc(F)cc5)c4=O)cc3F)c2)cn1 [Example 3, N-(4-(2-amino-5-(1-ethyl-1H-pyrazol-4-yl)pyridin-3-yl)-3-fluoro-phenyl)-6-cyano-5-(4-fluorophenyl)-1-isopropyl-4-oxo-1,4-dihydropyridine-3-carboxamide]
7 | 1.77 | 0.63 | CC(C)n1cc(C(=O)Nc2ccc(-c3cc(-c4cnn(C5CCN(C)CC5)c4)cnc3N)c(F)c2)c(=O)c(-c2ccc(F)cc2)c1C#N [Example 7, N-(4-(2-amino-5-(1-(1-methylpiperidin-4-yl)-1H-pyrazol-4-yl)-pyridin-3-yl)-3-fluorophenyl)-6-cyano-5-(4-fluorophenyl)-1-isopropyl-4-oxo-1,4-dihydro-pyridine-3-carboxamide]
8 | 1.16 | 1.16 | [2H]C([2H])([2H])n1cc(-c2cnc(N)c(-c3cc(F)c(NC(=O)c4cn(C(C)C)c(C#N)c(-c5ccc(F)cc5)c4=O)cc3F)c2)cn1 [Example 34, N-(4-(2-amino-5-(1-methyl-d3-1H-pyrazol-4-yl)pyridin-3-yl)-2,5-difluorophenyl)-6-cyano-5-(4-fluorophenyl)-1-isopropyl-4-oxo-1,4-dihydropyridine-3-carboxamide]
9 | 0.5 | 0.92 | CCn1cc(-c2cnc(N)c(-c3cc(F)c(NC(=O)c4cn(C(C)C)c(C#N)c(-c5ccc(F)cc5)c4=O)cc3F)c2)cn1 [Example 33, N-(4-(2-amino-5-(1-ethyl-1H-pyrazol-4-yl)pyridin-3-yl)-2,5-difluorophenyl)-6-cyano-5-(4-fluorophenyl)-1-isopropyl-4-oxo-1,4-dihydropyridine-3-carboxamide]
